The target in one test is Recombinant HDAC1 (Homo sapiens (Human), UniProt Q13547). The test is described as follows: HDAC1 inhibition, Fluor de Lys fluorescent enzyme assay. Type of test: biochemical. As to conditions: 3 hours pre-incubation at room temp; 6 nM enzyme; 16 μM Fluor de Lys substrate; duplicate. Put shortly:
(§1)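 Enzyme (HDAC1 6 nM, HDAC3/NCor2 1.2 nM final) pre-incubated with compound 3 h at ~22 °C in Tris pH 8 buffer with 0.01% BSA. Reaction run 1 h with 16 μM Fluor de Lys substrate and stopped with TSA-containing developer. Fluorescence read at Ex 360/Em 460; IC50 from an occupancy equation with Hill coefficient, in duplicate.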

The target of a further test is HDAC3/NCor2 (Homo sapiens (Human), UniProt O15379). The experiment in a line: HDAC3 inhibition, Fluor de Lys fluorescent enzyme assay. The test is classed as biochemical. As to conditions: 3 hours pre-incubation at room temp; 1.2 nM enzyme; 16 μM Fluor de Lys substrate; duplicate. Put shortly: as §1
HDAC3/NCor2, sequence (O15379 whole entry): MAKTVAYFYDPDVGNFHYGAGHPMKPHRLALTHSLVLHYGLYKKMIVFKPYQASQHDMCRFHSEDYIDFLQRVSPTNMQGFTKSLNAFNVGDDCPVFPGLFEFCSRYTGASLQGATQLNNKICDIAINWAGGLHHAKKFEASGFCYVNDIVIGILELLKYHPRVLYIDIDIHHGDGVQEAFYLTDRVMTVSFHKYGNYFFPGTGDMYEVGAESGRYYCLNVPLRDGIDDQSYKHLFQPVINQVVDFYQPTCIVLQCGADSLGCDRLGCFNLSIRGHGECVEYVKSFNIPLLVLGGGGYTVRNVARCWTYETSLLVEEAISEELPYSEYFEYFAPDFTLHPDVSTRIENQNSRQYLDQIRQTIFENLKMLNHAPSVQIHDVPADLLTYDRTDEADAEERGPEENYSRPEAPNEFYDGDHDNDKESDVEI
HDAC3/NCor2, sequence (Q9Y618 395-489 partner): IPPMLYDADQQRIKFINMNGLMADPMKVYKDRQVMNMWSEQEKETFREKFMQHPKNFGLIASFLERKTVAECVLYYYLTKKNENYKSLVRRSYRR

By IC50 is commonly meant the midpoint of a concentration-inhibition curve.

Recombinant HDAC1, sequence (Q13547 whole entry): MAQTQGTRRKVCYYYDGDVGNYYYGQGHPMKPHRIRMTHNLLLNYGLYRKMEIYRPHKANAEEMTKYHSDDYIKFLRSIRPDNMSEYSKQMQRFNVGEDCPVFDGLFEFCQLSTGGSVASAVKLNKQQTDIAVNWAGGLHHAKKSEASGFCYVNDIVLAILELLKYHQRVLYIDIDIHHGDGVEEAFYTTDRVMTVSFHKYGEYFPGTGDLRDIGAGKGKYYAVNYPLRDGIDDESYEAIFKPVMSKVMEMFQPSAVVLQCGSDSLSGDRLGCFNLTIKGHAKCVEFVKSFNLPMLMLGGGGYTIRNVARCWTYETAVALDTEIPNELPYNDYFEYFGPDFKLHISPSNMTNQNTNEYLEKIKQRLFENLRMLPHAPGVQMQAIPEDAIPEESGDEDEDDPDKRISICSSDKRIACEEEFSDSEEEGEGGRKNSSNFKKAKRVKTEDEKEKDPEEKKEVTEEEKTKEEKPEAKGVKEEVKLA

Turning to `C=C(C)c1cncc(S(=N)(=O)c2ccc(C(=O)Nc3cc(-c4ccc(F)cc4)ccc3N)cc2)c1` (centres unmarked) [Compound 225, N-[2-amino-5-(4-fluorophenyl)phenyl]-4-[(5-isopropenyl-3-pyridyl)sulfonimidoyl]benzamide], the figures for the IC50 on Recombinant HDAC1 and against HDAC3/NCor2 were less than 100 nM and 500 to 2000 nM, respectively.

As to `N=[S@](=O)(c1ccc(C(=O)Nc2cc(-c3ccc(F)s3)ccc2N)cc1)C1CC1` (single isomer, unassigned) [Compound 131], the IC50 on Recombinant HDAC1 is less than 100 nM; at HDAC3/NCor2 it was 500 to 2000 nM.

With `Cc1ccc(-c2ccc(N)c(NC(=O)c3ccc(S(C)(=N)=O)cc3)c2)s1` (centres unmarked) [Compound 139, N-[2-amino-5-(5-methyl-2-thienyl)phenyl]-4-(methylsulfonimidoyl)benzamide], the IC50 at Recombinant HDAC1 was less than 100 nM; on HDAC3/NCor2 it was greater than 2000 nM.

As for `Cc1ncc(-c2ccc(N)c(NC(=O)c3ccc(S(C)(=N)=O)cc3)c2)s1` (centres unmarked) [Compound 156, N-[2-amino-5-(2-methylthiazol-5-yl)phenyl]-4-(methylsulfonimidoyl)benzamide], the values for the IC50 at Recombinant HDAC1 and at HDAC3/NCor2 were 100 to 500 nM and greater than 2000 nM, respectively.

On to `CC(C)(C)C(=O)N=S(C)(=O)c1ccc(C(=O)Nc2cc(-c3cccs3)ccc2N)cc1` (centres unmarked) [Compound 125, N-[2-amino-5-(2-thienyl)phenyl]-4-[N-(2,2-dimethylpropanoyl)-S-methyl-sulfonimidoyl]benzamide], for which the IC50 at Recombinant HDAC1 is less than 100 nM; at HDAC3/NCor2 it was 500 to 2000 nM.

`CS(=O)(=NC1CC1)c1ccc(C(=O)Nc2cc(-c3ccc(F)cc3)ccc2N)cc1` (centres unmarked) [Compound 163, N-[2-amino-5-(4-fluorophenyl)phenyl]-4-(N-cyclopropyl-S-methyl-sulfonimidoyl)benzamide]: the results for the IC50 on Recombinant HDAC1 and against HDAC3/NCor2 were less than 100 nM and 100 to 500 nM, respectively.

As to `N=S(=O)(c1ccc(C(=O)Nc2cc(-c3ccccn3)ccc2N)cc1)C1CC1` (centres unmarked) [Compound 120, N-[2-amino-5-(2-pyridyl)phenyl]-4-(cyclopropylsulfonimidoyl)benzamide], the IC50 was 100 to 500 nM on Recombinant HDAC1 and greater than 2000 nM against HDAC3/NCor2.

As to `CS(=N)(=O)Cc1ccc(C(=O)Nc2cc(-c3ccc(F)cc3)ccc2N)cc1` (centres unmarked) [Compound 162, N-[2-amino-5-(4-fluorophenyl)phenyl]-4-[(methylsulfonimidoyl)methyl]benzamide], the results for the IC50 on Recombinant HDAC1 and at HDAC3/NCor2 were less than 100 nM and 500 to 2000 nM, respectively.

As for `CS(=N)(=O)c1ccc2sc(C(=O)Nc3cc(-c4ccc(F)cc4)ccc3N)cc2c1` (centres unmarked) [Compound 173, N-[2-amino-5-(4-fluorophenyl)phenyl]-5-(methylsulfonimidoyl)benzothiophene-2-carboxamide], the IC50 is less than 100 nM on Recombinant HDAC1 and 500 to 2000 nM on HDAC3/NCor2.

For the compound `N=S(=O)(c1ccc(C(=O)Nc2cc(-c3cccs3)ccc2N)cc1)c1ccccn1` (centres unmarked) [Compound 150, N-[2-amino-5-(2-thienyl)phenyl]-4-(2-pyridylsulfonimidoyl)benzamide], the results for the IC50 on Recombinant HDAC1 and against HDAC3/NCor2 were less than 100 nM and 500 to 2000 nM, respectively.

Turning to `N=S(=O)(c1ccc2sc(C(=O)Nc3cc(-c4ccc(F)cc4)ccc3N)cc2c1)C1CC1` (centres unmarked) [Compound 224, N-[2-amino-5-(4-fluorophenyl)phenyl]-5-(cyclopropylsulfonimidoyl)benzothiophene-2-carboxamide], the IC50 on Recombinant HDAC1 is less than 100 nM; against HDAC3/NCor2, 500 to 2000 nM.

On to `Cc1ncc(S(=N)(=O)c2ccc(C(=O)Nc3cc(-c4ccc(F)cc4)ccc3N)cc2)cn1` (centres unmarked) [Compound 235, N-[2-amino-5-(4-fluorophenyl)phenyl]-4-[(2-methylpyrimidin-5-yl)sulfonimidoyl]benzamide], for which the IC50 was less than 100 nM at Recombinant HDAC1 and 500 to 2000 nM against HDAC3/NCor2.

On to `N=S(=O)(c1ccc(C(=O)Nc2cc(-c3cccnc3)ccc2N)cc1)C1CC1` (centres unmarked) [Compound 116, N-[2-amino-5-(3-pyridyl)phenyl]-4-(cyclopropylsulfonimidoyl)benzamide], for which the IC50 on Recombinant HDAC1 was less than 100 nM; at HDAC3/NCor2 it was 500 to 2000 nM.

For the compound `COCCOCc1cncc(S(=N)(=O)c2ccc(C(=O)Nc3cc(-c4ccc(F)cc4)ccc3N)cc2)c1` (centres unmarked) [Compound 193, N-[2-amino-5-(4-fluorophenyl)phenyl]-4-[[5-(2-methoxyethoxymethyl)-3-pyridyl]sulfonimidoyl]benzamide], the IC50 at Recombinant HDAC1 was less than 100 nM; against HDAC3/NCor2, greater than 2000 nM.

As for `Cc1cccc(S(=N)(=O)c2ccc(C(=O)Nc3cc(-c4ccc(F)cc4)ccc3N)cc2)n1` (centres unmarked) [Compound 215, N-[2-amino-5-(4-fluorophenyl)phenyl]-4-[(6-methyl-2-pyridyl)sulfonimidoyl]benzamide], the IC50 on Recombinant HDAC1 is less than 100 nM; on HDAC3/NCor2 it was 500 to 2000 nM.

Regarding `CS(=N)(=O)c1ccc2sc(C(=O)Nc3cc(-c4cccs4)ccc3N)cc2c1` (centres unmarked) [Compound 138, N-[2-amino-5-(2-thienyl)phenyl]-5-(methylsulfonimidoyl)benzothiophene-2-carboxamide], the half-maximal inhibitory concentration (IC50) at Recombinant HDAC1 was less than 100 nM; at HDAC3/NCor2, 500 to 2000 nM.

For `CS(=N)(=O)C1(c2ccc(C(=O)Nc3cc(-c4cccs4)ccc3N)cc2)CC1` (centres unmarked) [Compound 140, N-[2-amino-5-(2-thienyl)phenyl]-4-[1-(methylsulfonimidoyl)cyclopropyl]benzamide], the IC50 at Recombinant HDAC1 was less than 100 nM; against HDAC3/NCor2, 500 to 2000 nM.

Turning to `CS(=N)(=O)c1ccc(C(=O)Nc2cc(-c3cncnc3)ccc2N)cc1` (centres unmarked) [Compound 151, N-(2-amino-5-pyrimidin-5-yl-phenyl)-4-(methylsulfonimidoyl)benzamide], the concentration for half-maximal inhibition (IC50) on Recombinant HDAC1 and against HDAC3/NCor2 was greater than 2000 nM throughout.

Regarding `[2H]c1c([2H])c(-c2ccc(N)c(NC(=O)c3ccc(S(C)(=N)=O)cc3)c2)c([2H])c([2H])c1F` (centres unmarked) [Compound 223, N-[2-amino-5-(2,3,5,6-tetradeutero-4-fluoro-phenyl)phenyl]-4-(methylsulfonimidoyl)benzamide], the IC50 on Recombinant HDAC1 was less than 100 nM; at HDAC3/NCor2, 500 to 2000 nM.

As to `N=S(=O)(c1ccncc1)c1ccc(C(=O)Nc2cc(-c3ccc(F)cc3)ccc2N)cc1` (centres unmarked) [Compound 168, N-[2-amino-5-(4-fluorophenyl)phenyl]-4-(4-pyridylsulfonimidoyl)benzamide], the half-inhibitory concentration (IC50) is less than 100 nM at Recombinant HDAC1 and 500 to 2000 nM against HDAC3/NCor2.

In the case of `COc1ncc(S(=N)(=O)c2ccc(C(=O)Nc3cc(-c4ccc(F)cc4)ccc3N)cc2)cn1` (centres unmarked) [Compound 218, N-[2-amino-5-(4-fluorophenyl)phenyl]-4-[(2-methoxypyrimidin-5-yl)sulfonimidoyl]benzamide], the IC50 on Recombinant HDAC1 was less than 100 nM; against HDAC3/NCor2, 500 to 2000 nM.

On to `N=S(=O)(c1ccc(C(=O)Nc2cc(-c3ccc(F)cc3)ccc2N)cn1)c1cnc[nH]1` (centres unmarked) [Compound 219, N-[2-amino-5-(4-fluorophenyl)phenyl]-6-(1H-imidazol-5-ylsulfonimidoyl)pyridine-3-carboxamide], for which the results for the half-inhibitory concentration (IC50) at Recombinant HDAC1 and against HDAC3/NCor2 were less than 100 nM and 500 to 2000 nM, respectively.

As for `CS(=N)(=O)c1ccc(C(=O)Nc2cc(-c3ccc(F)cc3)ccc2N)nn1` (centres unmarked) [Compound 159, N-[2-amino-5-(4-fluorophenyl)phenyl]-6-(methylsulfonimidoyl)pyridazine-3-carboxamide], the 50% inhibitory concentration (IC50) on Recombinant HDAC1 was less than 100 nM; at HDAC3/NCor2 it was 100 to 500 nM.

As for `C[S@@](=N)(=O)c1ccc(C(=O)Nc2cc(-c3cccs3)ccc2N)cc1` (single isomer, unassigned) [Compound 105], the values for the IC50 on Recombinant HDAC1 and against HDAC3/NCor2 were less than 100 nM and 500 to 2000 nM, respectively.

For `N=[S@@](=O)(c1ccc(C(=O)Nc2cc(-c3ccc(F)s3)ccc2N)cc1)C1CC1` (single isomer, unassigned) [Compound 133], the IC50 at Recombinant HDAC1 was less than 100 nM; at HDAC3/NCor2, 500 to 2000 nM.

For the origin of these results see patent US20250136570A1 (Tango Therapeutics, Inc., priority 2021, published 2025).
